Assay: in vitro
Details: human, hela cells

Row | Compound | viability at 28.5 h, 10 µM [%]
1 | N#CC(CCCN1CCC(O)(c2ccccc2)CC1)(c1ccccc1)c1ccccc1 [CBK002145] | 105

Same assay, conditions: human, hela cells, % viability

Row | Compound | viability at 28.5 h, 10 µM [%]
2 | Oc1nccc(Oc2ccnc(Cl)n2)n1 [CBK000010] | 98.5
3 | CCN(c1cc(N2CCCNCC2)ccc1NS(=O)(=O)c1cccc2cccnc12)S(C)(=O)=O [CBK000014C] | 80.1
4 | OCCOc1cccc(-c2nnco2)c1 [CBK000033] | 98.6
5 | COC(=O)c1cc(=O)c2ccccc2o1 [CBK000064] | 91.8
6 | Cc1cccc2[nH]c(-c3ccccc3)nc12 [CBK000110] | 92.9
7 | COc1ccc(Cc2n[nH]c(=O)n2-c2ccccc2)cc1 [CBK000112] | 107
8 | COc1ccc(-c2nc3cc(OC)ccc3[nH]2)cc1 [CBK000126] | 90.5
9 | CC(C)(C)OC(=O)N1CCN(c2ccc([N+](=O)[O-])cn2)CC1 [CBK000134] | 95.6
10 | CC(C)(C)OC(=O)N1CCN(c2ncc([N+](=O)[O-])s2)CC1 [CBK000135] | 92.1
11 | CC(C)(C)OC(=O)N1CCN(c2cc(NCc3ccccc3)ncn2)CC1 [CBK000137] | 94.7
12 | O=C(Nc1ccc(-c2ccoc2)cc1C(=O)O)OCc1ccc([N+](=O)[O-])cc1 [CBK000141D] | 98.9
13 | Fc1cccc(N2CCN(Cc3ccccc3)CC2)n1 [CBK000144] | 102
14 | Fc1cccc(NCc2ccccc2)n1 [CBK000149] | 94.9
15 | CC(C)(C)OC(=O)N1CCN(c2cncc(NCc3ccccc3)n2)CC1 [CBK000154] | 112
16 | Cc1ccc(NC(=O)c2cccnc2)c(C(=O)O)c1 [CBK000177] | 103
17 | O=C(O)CCn1c2ccccc2c2ccccc21 [CBK000208] | 87.7
18 | c1ccc2c(c1)CC(Oc1cncc(N3CCNCC3)n1)C2 [CBK000242G] | 106
19 | O=C(O)CCCCn1c2c(c3ccccc31)CCCC2 [CBK000253] | 98.9
20 | Cc1nn(C)c(Oc2ccc3c(c2)CCCC3)c1[N+](=O)[O-] [CBK000273] | 91.2
21 | Cc1ccc(Oc2c([N+](=O)[O-])c(C)nn2C)c(Br)c1 [CBK000283] | 90.6
22 | CN(Cc1ccccc1)c1nc(C(F)(F)F)cc(=O)[nH]1 [CBK000319] | 92
23 | Oc1cc(C(F)(F)F)nc(N2CCc3ccccc3C2)n1 [CBK000344] | 82
24 | CC(=O)Nc1ccc(S(=O)(=O)Nc2ccnc(N3CCNCC3)n2)cc1 [CBK000363C] | 92.5
25 | COc1ccc(OC)c(-c2ccc(NC(=O)c3ccc(Cl)cc3Cl)c(C(=O)O)c2)c1 [CBK000393D] | 90.8

Row | Compound | viability at 28.5 h, 10 µM [%]
26 | COC(=O)c1cc(-c2ccccc2OCc2ccccc2)ccc1NC(=O)c1ccc(Cl)cc1Cl [CBK000415] | 88.5
27 | COC(=O)c1cccc2c3c([nH]c12)CCCC3 [CBK000423] | 87.8
28 | CC(C)(CN)CN(Cc1ccc(Cl)cc1Cl)C(=O)NCCc1c[nH]c2ccccc12 [CBK000460C] | 89.4
29 | CC(NC(=O)N(Cc1cccc2ccccc12)C1CCC(N)CC1)c1cccc2ccccc12 (stereo not drawn) [CBK000482C] | 67.8
30 | CC(=O)Oc1cc(C(F)(F)F)nc(NCc2ccc(Cl)cc2)n1 [CBK000500] | 94.7
31 | Oc1cc(C(F)(F)F)nc(Nc2ccccc2)n1 [CBK000517] | 89.3
32 | CC(C)(C)OC(=O)NCc1ccc2cccc(OCCO)c2n1 [CBK000585] | 83.3
33 | O=[N+]([O-])c1ccc(F)cc1NS(=O)(=O)c1ccccc1 [CBK000674] | 93.1
34 | NCCC(=O)N(CCc1cc(C(F)(F)F)cc(C(F)(F)F)c1)c1cccc2ccccc12 [CBK000695T] | 0
35 | NCCN(C(=O)CCc1cc(C(F)(F)F)cc(C(F)(F)F)c1)c1ccc2c(c1)OCO2 [CBK000701T] | 105
36 | CSc1nccc(OCCOc2nccnc2N2CCNCC2)n1 [CBK000718G] | 104
37 | N#Cc1ccc(OCCO)cc1 [CBK000723] | 107
38 | O=C(c1ccccc1)c1ccccc1OCCO [CBK000728] | 116
39 | COC(=O)Cc1nc(NS(=O)(=O)c2ccc(Oc3cccc(Cl)c3C#N)cc2)sc1C [CBK000744] | 98.3
40 | CCOC(=O)c1sc(NS(=O)(=O)c2cccc(Cl)c2C)nc1-c1ccccc1 [CBK000749] | 92.7
41 | COc1ccc(-n2nc(C)c3onc(C)c3c2=O)cc1 [CBK000853] | 101
42 | Cc1c(C)n(CC(=O)O)c2ccccc12 [CBK000884] | 97
43 | CCOC(=O)Cc1csc(NS(=O)(=O)c2cn(C)cn2)n1 [CBK000888] | 112
44 | Cc1cc(Cl)cc(Cl)c1S(=O)(=O)Nc1nc(-c2cccc([N+](=O)[O-])c2)cs1 [CBK000902] | 111
45 | CCCc1ccc(S(=O)(=O)Nc2nc(-c3cccc([N+](=O)[O-])c3)cs2)cc1 [CBK000987] | 88.1
46 | CCc1csc(C(=Cc2ccc(OC)cc2)C(N)=O)n1 [CBK001010] | 86.9
47 | COc1ccc(CCCCN(C(=O)C(N)Cc2ccccc2)c2cccc3ccccc23)cc1OC (stereo not drawn) [CBK001032T] | 118
48 | CNCC(=O)N(CCc1cc(C(F)(F)F)cc(C(F)(F)F)c1)c1ccc2c(c1)OCO2 [CBK001038T] | 120
49 | CCOC(=O)CCC(=O)n1c2ccccc2c2ccccc21 [CBK001170] | 67.2

Row | Compound | viability at 28.5 h, 10 µM [%]
50 | O=C(CN1CCOCC1)Nc1ccc(S(=O)(=O)Nc2cc(Cl)cc(Cl)c2)cc1 [CBK001239] | 89.1
51 | O=[N+]([O-])c1cc(S(=O)(=O)Nc2ccccc2)ccc1N1CCN2CCCC2C1 (stereo not drawn) [CBK001248] | 87.7
52 | O=C(O)c1ccc2[nH]c3c(c2c1)CCCC3 [CBK001252] | 90.9
53 | COc1cccc2cc(C3CN(C(=O)C(C)(C)NC(=O)OC(C)(C)C)CC3C(=O)O)oc12 (stereo not drawn) [CBK001348] | 102
54 | CN(c1cc(F)ccc1[N+](=O)[O-])S(C)(=O)=O [CBK001365] | 82.1
55 | CC1CCN(c2ccc([N+](=O)[O-])c(N3CCC(C)CC3)c2)CC1 [CBK001367] | 92.5
56 | CN(c1cc(F)ccc1[N+](=O)[O-])S(=O)(=O)c1ccccc1 [CBK001369] | 97.5
57 | CSc1nc(O)cc(C(F)(F)F)n1 [CBK001401] | 112
58 | N#Cc1ccccc1OCCO [CBK001443] | 97.9
59 | COCCOc1ncccc1OCc1ccccc1 [CBK001456] | 92.9
60 | CC(C)Oc1ncccc1OCc1ccccc1 [CBK001457] | 124
61 | Brc1ncccc1OCc1ccccc1 [CBK001458] | 82.6
62 | CCCOc1ncccc1O [CBK001459] | 89.7
63 | OCCOc1cccnc1OCC1CC1 [CBK001461] | 89.4
64 | Cc1nn(C)c(=O)c2c(C)noc12 [CBK001462] | 101
65 | CC(C)Oc1ncccc1OCCO [CBK001465] | 112
66 | Cc1ccc(S(=O)(=O)Nc2ccc(N3C[C@@H](C)N[C@@H](C)C3)c3ccccc23)cc1 [CBK001486C] | 87.8
67 | CCNc1cc(N2CCN(C)CC2)ccc1NS(=O)(=O)c1ccc(F)cc1F [CBK001496C] | 95.8
68 | CN1CCCN(c2ccc(NS(=O)(=O)c3ccc(F)cc3F)c3ccccc23)CC1 [CBK001499C] | 64.8
69 | CCC1CNCCN1c1nccnc1OCCOc1cccnc1 (stereo not drawn) [CBK001559F] | 121
70 | COC(=O)c1cccc2c(C)c(C)[nH]c12 [CBK001563] | 97.4
71 | C[C@@H]1CN(Cc2ccccc2)C[C@H](C)N1 [CBK001569] | 86.1
72 | CCCCN(CCCC)c1nccnc1Cl [CBK001576] | 94.7
73 | Cc1ccc2oc([C@H]3CN(C(=O)C4CCN(C(=O)OC(C)(C)C)CC4)C[C@@H]3C(=O)O)cc2c1 [CBK001601] | 90.7

Row | Compound | viability at 28.5 h, 10 µM [%]
74 | CC(=O)N1CCc2ccc(S(=O)(=O)n3ccc4c(N5CCNCC5)cccc43)cc2C1 [CBK001632C] | 101
75 | COC(=O)c1cccc2c1[nH]c1ccccc12 [CBK001709] | 99.9
76 | NC(=O)c1cccc(COc2ccccc2C(=O)Nc2ccc(-c3ccsc3)cc2C(=O)O)c1 [CBK001718] | 82.6
77 | OCc1ccnc2ccccc12 [CBK001746] | 87.4
78 | OCCOc1cccc2cccnc12 [CBK001784] | 104
79 | OCCOc1nc2ccccc2s1 [CBK001812] | 97.2
80 | c1cncc(OCCOc2nsnc2N2CCNCC2)c1 [CBK001825G] | 94.4
81 | c1cnc(N2CCNCC2)c(OC2CCCCC2)n1 [CBK001837C] | 92.7
82 | CCCOc1nccnc1N1CCNCC1 [CBK001839G] | 82.4
83 | Cc1cc(N2CCN(C(=O)OC(C)(C)C)CC2)nc(N)n1 [CBK001843] | 110
84 | c1cc(CNCCN2CCOCC2)cs1 [CBK001894] | 105
85 | CCOc1nccnc1N1CCNCC1 [CBK001899G] | 93.1
86 | CCCCCOc1nccnc1N1CCNCC1 [CBK001901G] | 103
87 | COCCOc1nccnc1N1CCNCC1 [CBK001903G] | 103
88 | CNC(=O)N1CC(=O)N(Cc2cccc(Cl)c2)C1=O [CBK001918] | 104
89 | Cc1ccc(S(=O)(=O)n2nncc2C)cc1 [CBK001921] | 111
90 | COc1ccc(-c2oc(C(=O)N(C)C)c(C(=O)O)c2-c2ccc(OC)cc2)cc1 [CBK001958] | 90.5
91 | OCCOc1ccccc1-c1nnco1 [CBK001972] | 92.6
92 | O=S(=O)(c1ccccc1)n1ccc2c(Br)cccc21 [CBK002084] | 113
93 | CC(C)(C)OC(=O)N1CCN(c2ccnc(Cl)n2)CC1 [CBK002095] | 120
94 | COc1ccccc1N1CCN(C(=O)N(CCN)CCC(C)c2ccccc2)CC1 (stereo not drawn) [CBK002137C] | 88.7

Same assay, conditions: human, hela cells, % viability, bulk resorufin, single well

Row | Compound | viability at 28.5 h, 10 µM [%]
95 | CCn1nc(-c2ccccc2)nc2c(=O)n(C)c(=O)nc1-2 [CBK000921] | 92.1
96 | CC(N)c1cc2ccccc2o1 (stereo not drawn) [CBK001492C] | 97.7
